For the assay, the target named is T1, DβH (Homo sapiens, UniProt P09172).
T1 construct: reaction mixture (total volume 500 μl) contained: cellular homogenate (75 μg total protein); host or cells: SK-N-SH cell homogenate
T1 sequence (P09172 1-617): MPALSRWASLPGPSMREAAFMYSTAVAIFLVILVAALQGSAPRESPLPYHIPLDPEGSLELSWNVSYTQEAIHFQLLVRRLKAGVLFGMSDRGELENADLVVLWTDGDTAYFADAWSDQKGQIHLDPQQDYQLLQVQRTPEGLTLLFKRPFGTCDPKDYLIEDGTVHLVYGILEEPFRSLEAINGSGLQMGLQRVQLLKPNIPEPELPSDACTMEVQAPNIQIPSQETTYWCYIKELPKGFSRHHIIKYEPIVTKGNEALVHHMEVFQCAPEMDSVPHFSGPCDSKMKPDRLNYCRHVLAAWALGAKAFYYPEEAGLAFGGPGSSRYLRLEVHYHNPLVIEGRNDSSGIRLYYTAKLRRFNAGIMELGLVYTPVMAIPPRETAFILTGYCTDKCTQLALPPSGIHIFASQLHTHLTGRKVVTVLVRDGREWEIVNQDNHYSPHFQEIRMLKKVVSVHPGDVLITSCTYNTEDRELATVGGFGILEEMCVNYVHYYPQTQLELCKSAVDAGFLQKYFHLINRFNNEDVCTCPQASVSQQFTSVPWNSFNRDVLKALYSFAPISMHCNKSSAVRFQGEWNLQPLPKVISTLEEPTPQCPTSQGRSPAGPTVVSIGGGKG
Nature of the assay: DβH inhibition cell assay (SK-N-SH cellular homogenates, tyramine to octopamine). The format is biochemical. As to conditions: SK-N-SH cell homogenate; for remaining activity at 0.1 µM: inhibitor 0.1 μM, read-out: DβH activity in % of Ctrl (0.1 μM); for remaining activity at 1 µM: inhibitor 1 μM, read-out: DβH activity in % of Ctrl (1 μM).

Experimental findings from patent US10975083B2, “Blood-brain barrier-penetrant dopamine-β-hydroxylase inhibitors” (BIAL—PORTELA & Cᵃ, S.A., priority 2016, dated 2021) are described below.

`S=c1[nH]cc2n1C[C@@]1(c3cc(Cl)cc(Cl)c3)C[C@@H]21` [Example 109, (5aS,6aR)-5a-(3,5-dichlorophenyl)-5,5a,6,6a-tetrahydrocyclopropa[3,4]pyrrolo[1,2-c]imidazole-3 (2H)-thione]: the remaining activity at 0.1 µM was found to be 67.5% and the remaining activity at 1 µM stood at 17.2%.

`Fc1ccc(Cl)cc1[C@@]12C[C@@H]1c1c[nH]c(=S)n1C2` [Example 110, (5aR,6aS)-5a-(5-chloro-2-fluorophenyl)-5,5a,6,6a-tetrahydrocyclopropa[3,4]pyrrolo[1,2-c]imidazole-3 (2H)-thione]: the remaining activity at 0.1 µM was 73.8% and the remaining activity at 1 µM was 15.9%.

In the case of `Fc1cc(F)c(F)c([C@H]2CC3CNC(=S)N3C2)c1F` (stereo partly drawn) [Example 111, (6R)-6-(2,3,5,6-tetrafluorophenyl)tetrahydro-1H-pyrrolo[1,2-c]imidazole-3(2H)-thione], the remaining activity at 1 µM was 48.3%.

For the compound `Fc1ccc(F)c([C@@H]2Cc3c[nH]c(=S)n3C2)c1F` [Example 112, (S)-6-(2,3,6-trifluorophenyl)-2,5,6,7-tetrahydro-3H-pyrrolo[1,2-c]imidazole-3-thione], the remaining activity at 0.1 µM stood at 70% and the remaining activity at 1 µM was 10.1%.

As to `Fc1ccc(F)c([C@H]2Cc3c[nH]c(=S)n3C2)c1F` [Example 113, (R)-6-(2,3,6-trifluorophenyl)-2,5,6,7-tetrahydro-3H-pyrrolo[1,2-c]imidazole-3-thione], the remaining activity at 0.1 µM is 39.6% and the remaining activity at 1 µM was determined as 0%.

Consider `Cn1cc2n(c1=S)C[C@@H](c1c(F)c(F)cc(F)c1F)C2` [Example 114, (R)-2-methyl-6-(2,3,5,6-tetrafluorophenyl)-2,5,6,7-tetrahydro-3H-pyrrolo[1,2-c]imidazole-3-thione], for which the remaining activity at 0.1 µM came out at 70.8% and the remaining activity at 1 µM turned out to be 15.2%.

As for `Fc1ccc(Br)c(F)c1[C@]12C[C@H]1c1c[nH]c(=S)n1C2` [Example 115, (5aS,6aR)-5a-(3-bromo-2,6-difluorophenyl)-5,5a,6,6a-tetrahydrocyclopropa[3,4]pyrrolo[1,2-c]imidazole-3 (2H)-thione], the remaining activity at 0.1 µM was 0.5% and the remaining activity at 1 µM amounted to 0%.

In the case of `Cn1cc2n(c1=S)C[C@@]1(c3cc(Cl)ccc3F)C[C@@H]21` [Example 116, (5aS,6aR)-5a-(5-chloro-2-fluorophenyl)-2-methyl-5,5a,6,6a-tetrahydrocyclopropa[3,4]pyrrolo[1,2-c]imidazole-3 (2H)-thione], the remaining activity at 0.1 µM worked out at 24.8% and the remaining activity at 1 µM came to 0%.

`Fc1ccc(Br)c(F)c1[C@@H]1Cc2c[nH]c(=S)n2C1` [Example 117, (S)-6-(3-bromo-2,6-difluorophenyl)-2,5,6,7-tetrahydro-3H-pyrrolo[1,2-c]imidazole-3-thione]: the remaining activity at 0.1 µM was determined as 6.4% and the remaining activity at 1 µM is 0%.

For `Fc1ccc(Br)c(F)c1[C@H]1Cc2c[nH]c(=S)n2C1` [Example 118, (R)-6-(3-bromo-2,6-difluorophenyl)-2,5,6,7-tetrahydro-3H-pyrrolo[1,2-c]imidazole-3-thione], the remaining activity at 0.1 µM was 33.8% and the remaining activity at 1 µM came to 0%.

Turning to `Fc1ccc(Br)c(F)c1[C@]12C[C@H]1c1n[nH]c(=S)n1C2` [Example 119, (5aS,6aR)-5a-(3-bromo-2,6-difluorophenyl)-5,5a,6,6a-tetrahydrocyclopropa[3,4]pyrrolo[2,1-c][1,2,4]triazole-3(2H)-thione], the remaining activity at 0.1 µM was determined as 49.1% and the remaining activity at 1 µM amounted to 4.5%.

In the case of `Fc1ccc(Br)cc1[C@]12C[C@H]1c1n[nH]c(=S)n1C2` [Example 120, (5aS,6aR)-5a-(5-bromo-2-fluorophenyl)-5,5a,6,6a-tetrahydrocyclopropa[3,4]pyrrolo[2,1-c][1,2,4]triazole-3(2H)-thione], the remaining activity at 0.1 µM came out at 86.4% and the remaining activity at 1 µM was 21.8%.
